Experimental data published in publication doi:10.1101/108654v1 (biorxiv, 2017).

Columns and labels:
[1] = tested on: DU145; test: cells; parameters: species or system human cancer cell lines; conditions: Homo sapiens, DU-145, 48 h, read-out: DU145
[2] = tested on: MCF7; test: cells; parameters: species or system human cancer cell lines; conditions: Homo sapiens, MCF7, 48 h, read-out: MCF7
[3] = tested on: HepG2; test: cells; parameters: species or system human cancer cell lines; conditions: Homo sapiens, HepG2, 48 h, read-out: HepG2
[4] = tested on: SKOV3; test: cells; parameters: species or system human cancer cell lines; conditions: Homo sapiens, SK-OV-3, 48 h, read-out: SKOV3
[5] = tested on: MDA MB-231; test: cells; parameters: species or system human cancer cell lines; conditions: Homo sapiens, MDA-MB-231, 48 h, read-out: MDA MB-231
[6] = in vitro; conditions: human, mrc5 cells
[7] = target: porcine brain tubulin (Sus scrofa, UniProt P02550+P02554); test: fluorescence-based tubulin polymerization assay; type: biochemical; conditions: read-out: % inhibition at 3 μM
Chain of porcine brain tubulin (P02550 whole entry): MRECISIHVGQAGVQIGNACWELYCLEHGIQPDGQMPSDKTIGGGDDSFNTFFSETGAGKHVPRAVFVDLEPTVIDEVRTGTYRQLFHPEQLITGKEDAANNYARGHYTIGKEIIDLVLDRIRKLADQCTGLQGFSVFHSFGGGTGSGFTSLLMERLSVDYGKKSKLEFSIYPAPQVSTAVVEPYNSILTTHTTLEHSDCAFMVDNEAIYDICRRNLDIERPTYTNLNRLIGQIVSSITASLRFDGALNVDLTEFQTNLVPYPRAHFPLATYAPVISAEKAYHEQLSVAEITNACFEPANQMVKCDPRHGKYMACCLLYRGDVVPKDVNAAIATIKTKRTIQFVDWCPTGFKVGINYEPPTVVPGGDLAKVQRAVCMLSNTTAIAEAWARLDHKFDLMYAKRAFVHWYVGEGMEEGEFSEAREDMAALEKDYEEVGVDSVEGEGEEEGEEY
Chain of porcine brain tubulin (P02554 whole entry): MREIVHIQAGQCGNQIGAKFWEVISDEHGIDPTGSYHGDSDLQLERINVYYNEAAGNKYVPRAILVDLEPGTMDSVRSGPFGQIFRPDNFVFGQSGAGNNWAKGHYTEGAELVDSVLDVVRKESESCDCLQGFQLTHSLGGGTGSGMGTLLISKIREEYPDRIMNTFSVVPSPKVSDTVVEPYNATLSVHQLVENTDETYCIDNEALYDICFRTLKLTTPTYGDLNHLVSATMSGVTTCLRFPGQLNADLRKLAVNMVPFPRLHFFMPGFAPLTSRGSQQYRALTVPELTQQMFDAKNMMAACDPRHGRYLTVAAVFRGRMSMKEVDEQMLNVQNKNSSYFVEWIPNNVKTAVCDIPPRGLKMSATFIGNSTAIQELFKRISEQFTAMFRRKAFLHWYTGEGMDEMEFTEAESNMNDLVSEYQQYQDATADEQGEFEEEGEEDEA

SMILES | GI50 [1] [µM] | GI50 [2] [µM] | GI50 [3] [µM] | GI50 [4] [µM] | inhibition at 3 µM [7] [%] | GI50 [5] [µM] | CC50 at 48 h [6] [µM]
COc1cccc2c1C(=O)c1c(O)c3c(c(O)c1C2=O)C[C@@](O)(C(=O)CO)C[C@@H]3O[C@H]1C[C@H](N)[C@H](O)[C@H](C)O1 [Doxorubicin] | < 0.1 | < 0.1 | < 0.1 | 1.17 ± 0.52 |  | < 0.1 | 
COC(=O)Nc1nc2ccc(C(=O)c3cccs3)cc2[nH]1 [nocodazole] | 0.17 ± 0.07 | < 0.1 | 7.06 ± 0.54 | < 0.1 |  | 2.8 ± 0.51 | 129 ± 1.48

The next lines start with results.

GI50 [1] [µM] | GI50 [2] [µM] | GI50 [3] [µM] | GI50 [4] [µM] | inhibition at 3 µM [7] [%] | SMILES | GI50 [5] [µM] | CC50 at 48 h [6] [µM]
> 10 | > 10 | > 10 | 0.15 ± 0.05 |  | Clc1ccc2nc(Cl)nc(-c3ccccc3Cl)c2c1 [ATS-1] | > 10 | 136 ± 1.63
2.27 ± 0.37 | > 10 | > 10 | 0.47 ± 0.06 |  | Clc1ccc2nc(NN=Cc3c(Cl)cccc3Cl)nc(-c3ccccc3)c2c1 [ATS-3] | 8.84 ± 0.12 | 159 ± 1.06
0.81 ± 0.07 | > 10 | 1.35 ± 0.45 | 2.75 ± 0.35 |  | O=[N+]([O-])c1ccc(C=NNc2nc(-c3ccccc3)c3cc(Cl)ccc3n2)o1 [ATS-4] | > 10 | 162 ± 1.82
> 10 | 0.6 ± 0.07 | > 10 | 10.3 ± 0.62 | 59 | Clc1ccc2nc(Nc3c(Cl)cccc3Cl)nc(-c3ccccc3)c2c1 [ATS-7] | > 10 | 141 ± 1.41
